Measurements as given in patent US20220017516A1, “LOX INHIBITORS” (THE INSTITUTE OF CANCER RESEARCH: ROYAL CANCER HOSPITAL, priority 2018, published 2022).
Where two headings read alike, the source gives them in different places.

Experiments:
LOX = biological target: T1, LOX (Mus musculus, UniProt P28301); assay: LOX activity in cysts assay (roGFP2 LOX biosensor in MDCK cysts); format: cell-based; details: for inhibition at 10 µM: read-out: Cyst LOX @ 10 uM (% inhibition)
T1 construct: Full length LOX cDNA was then PCR cloned into pEGFP-N1 (Clonetech), or biosensor vector proGFP2—N1; expressed in transfected cells; host or cells: MDCK cells grown as cysts on Matrigel
T1 sequence (P28301 163-411): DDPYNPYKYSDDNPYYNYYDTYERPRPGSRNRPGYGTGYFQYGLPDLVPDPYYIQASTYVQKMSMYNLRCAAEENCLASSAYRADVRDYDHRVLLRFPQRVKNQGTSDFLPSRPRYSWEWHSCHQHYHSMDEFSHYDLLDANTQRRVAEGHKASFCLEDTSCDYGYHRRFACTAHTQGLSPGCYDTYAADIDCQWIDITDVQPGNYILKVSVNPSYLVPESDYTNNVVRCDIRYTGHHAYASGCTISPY
Experimental: All cell lines used in this study were purchased from American Type Culture Collection (ATCC). Mycoplasma contamination was routinely monitored by PCR. Cells used were not found to be Mycoplasma positive. MDCK cell lines were cultured in Dulbecco's Modified Eagle Medium (DMEM) supplemented with 10% fetal bovine serum (FBS) and 1% Penicillin Streptomycin solution (Pen Strep). For GFP constructs transfection in MDCK cells, lipofectamine 3000 was used according to manufactures protocols. Cells were either selected with G418 (Life Technologies) at 5 mg/ml. All cell culture reagents were purchased from Life Technologies.
To produce MDCK cysts, cells were cultured on Matrigel (Corning) with 2% Matrigel supplemented in DMEM with 10% FBS. Cysts were allowed to form for 10 days before subsequent studies.
Mouse LOX cDNA was purchased from OriGene. Full length LOX cDNA was then PCR cloned into pEGFP-N1 (Clonetech), or biosensor vector proGFP2—N1 (Hanson, 2004) using the following primers, […] (forward primer) and […] (reverse primer). For the insertion into pEGFP-N1 or proGFP2—N1, Nhel and Xhol restriction sites were added to forward and reverse primers accordingly. Mutant LOX constructs were made using QuickChange II site-directed mutagenesis kit (Agilent Technologies) following manufacture's protocol using LOX-GFP as template. To generate, roGFP2 versions of LOX mutant constructs, LOX mutant cDNA was transferred from pEGFP-N1 to proGFP2—N1 using Nhel and Xhol.
All photomicrographs were taken with a Leica TCS SP8 X confocal system. For LOX biosensor imaging, live MDCK cysts were used. The oxidised biosensor was excited using a 405 nm laser, while the reduced biosensor was excited with a 488 nm laser. Emission of the biosensor was recorded at 500 nm-530 nm range using sequential scans. Ratio images were generated following a published protocol {Kardash, 2011 #376}. Note, while the published protocol generates YFP/CFP ratio images, we used it to generate Oxidised/Reduced (roGFP2 ratio) ratio images. The roGFP2 ratio at the basal surface of MDCK cysts was used to indicate LOX inhibition. LOX inhibitors were added 30 min prior to imaging.
For clarity, readout for DMSO treated cysts represents 0% inhibition (no inhibition) and readout for BAPN at 1 mM is used as 100% inhibition (full inhibition).

LOXL3 = biological target: T2, LOXL3 (Homo sapiens, UniProt P58215); assay: LOX isoform activity assay (ROS Glo), LOXL3; format: biochemical; details: 1 h incubation with enzyme
T2 construct: purchased R&D Systems/Bio-techne
T2 sequence (P58215 26-753): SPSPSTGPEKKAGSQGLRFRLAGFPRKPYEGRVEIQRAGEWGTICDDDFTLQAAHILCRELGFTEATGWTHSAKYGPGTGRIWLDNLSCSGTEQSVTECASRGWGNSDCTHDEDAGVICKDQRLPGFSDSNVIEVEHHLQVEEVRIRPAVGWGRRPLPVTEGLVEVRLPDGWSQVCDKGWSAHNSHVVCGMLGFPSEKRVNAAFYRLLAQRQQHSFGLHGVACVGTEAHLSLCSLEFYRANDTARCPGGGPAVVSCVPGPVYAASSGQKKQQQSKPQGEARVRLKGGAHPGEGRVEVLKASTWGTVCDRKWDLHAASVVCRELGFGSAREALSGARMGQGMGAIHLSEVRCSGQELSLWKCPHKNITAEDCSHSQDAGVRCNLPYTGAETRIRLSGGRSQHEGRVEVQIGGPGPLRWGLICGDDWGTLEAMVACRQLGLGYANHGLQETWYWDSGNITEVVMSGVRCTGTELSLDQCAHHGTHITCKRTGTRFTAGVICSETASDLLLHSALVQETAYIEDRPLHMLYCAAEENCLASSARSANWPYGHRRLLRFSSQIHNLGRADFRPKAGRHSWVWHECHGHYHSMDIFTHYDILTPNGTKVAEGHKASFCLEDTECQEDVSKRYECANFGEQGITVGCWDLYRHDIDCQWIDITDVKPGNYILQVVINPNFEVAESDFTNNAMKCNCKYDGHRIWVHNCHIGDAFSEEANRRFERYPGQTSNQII
Experimental: LOX was extracted from pig skin by previously described methods (Shackleton and Hulmes, 1990). LOXL2 and LOXL3 were obtained from R&D Systems/Bio-techne. The Promega ROS Glo assay kit (G8821) was used to assess enzyme activity. Overall, test compound was added to either 384 well assay plates (Greiner) using a Labcyte Echo™ Acoustic Handler or to 96 well plates for a final assay concentration of 100, 30, 10, 3, 1, 0.3, 0.1, 0.03, 0.01 and 0.003 μM final assay concentration. Enzymes were diluted according to specific pre-determined activity in assay buffer (100 mM CHES, pH 9, 0.05% (w/v) pluronic F-127, 0.5% (w/v) BSA, 1 mM MgCl2, 1 M urea, 100 mM NaCl) and added to the plate. For LOXL2, the mixture was incubated for 20 min, 1 h or 20 h; for LOX and LOXL3, incubation time was 1 h. Cadaverine and H2O2 substrate were then added to each well (final assay concentration 19.56 mM and 25 μM respectively) and the plates were incubated for 1.5 h (for LOX) or 1 h (for LOXL2 and LOXL3) at room temperature. Finally, luciferin detection reagent was added and plates were incubated for 20 min at room temperature, protected from light. Luminescence was measured using a BMG LABTECH PHERAstar FS reader and resulting IC50 values were calculated using GraphPad Prism software.

[1] = LOX, 10 uM, DMSO = 0%, BAPN 1 mM = 100% inhibition, inhibitor added 30 min prior to imaging

| Structure (SMILES) | inhibition at 10 µM (LOX; [1]) | inhibition at 10 µM (LOX; LOX) | IC50 (LOXL3) | also measured |
| --- | --- | --- | --- | --- |
| CCOc1ccc(N2CC3CN(CCS(=O)(=O)CCN)CC3C2)cc1 (centres unmarked) [Example 4, 2-((2-(5-(4-ethoxyphenyl)hexahydropyrolo [3,4-c]pyrrol-2(1H)-yl)ethyl)sulfonyl)ethan-1-amine] | 100% |  |  |  |
| CCOc1ccc(N2C[C@H]3CN(C(=O)CS(=O)(=O)CCN)C[C@@H]2C(C)(C)C3)cc1 [Example 7, 2-((2-aminoethyl)sulfonyl)-1-((1S,5S)-6-(4-ethoxyphenyl)-9,9-dimethyl-3,6-diazabicyclo[3.2.2]nonan-3-yl)ethan-1-one] |  | 79% |  |  |
| CCOc1ccc(N2C[C@@H]3C[C@H]2CN3C(=O)CS(=O)(=O)CCN)cc1 [Example 8, 2-((2-aminoethyl)-sulfonyl)-1-((1S,4S)-5-(4-ethoxyphenyl)-2,5-diazabicyclo-[2.2.1]heptan-2-yl)-ethan-1-one] |  |  | 550 nM | inhibition at 2.5 µM (LOX; LOX, 2.5 uM (stated in cell), DMSO = 0%, BAPN 1 mM = 100% inhibition, read-out: Cyst LOX (% inhibition) @ 2.5 uM): 46%; IC50 (LOX; MDCK cysts, read-out: Cyst LOX IC50): 370 nM |
| NCCS(=O)(=O)CC(=O)N1CCN(c2ccccc2)CC1 [Example 13, 2-((2-Aminoethyl)-sulfonyl)-1-(4-phenylpiperazin-1-yl)ethan-1-one] |  |  | 280 nM |  |
| CCOc1ccc(N2C[C@H]3CN(c4ccc(S(=O)(=O)CCN)cc4)C[C@@H]2C(C)(C)C3)cc1 [Example 33, 2-((4-((1R,5S)-6-(4-ethoxyphenyl)-9,9-dimethyl-3,6-diazabicyclo [3.2.2]nonan-3-yl)phenyl)sulfonyl)ethan-1-amine] | 100% |  |  |  |
| CCOc1ccc(N2C[C@H]3CN(C(=O)NCCS(=O)(=O)CCN)C[C@@H]2C(C)(C)C3)cc1 [Example 38, (1S,5S)—N-(2-((2-aminoethyl)sulfonyl)ethyl)-6-(4-ethoxyphenyl)-9,9-dimethyl-3,6-diazabicyclo[3.2.2]nonane-3-carboxamide] |  | 70% |  |  |
